Experimental data published in patent US20100029615A1, “BENZIMIDAZOLE DERIVATIVES” (priority 2006, published 2010).
Structures can show the parent of a compound that is named as a salt.

Biological target: T1, SMO (Mus musculus, UniProt P56726)
T1 construct: endogenous in cells; host or cells: C3H10T1/2 (ATCC #CCL-226)
Experiment: Smoothened (SMO)/Sonic Hedgehog (SHh) Transient Transcriptional Activation Assay (Gli-luciferase reporter in C3H10T1/2 cells)
Format: cell-based, murine
Settings: SHh 250 ng/ml, 20 hrs; for inhibition at 2 µM: C3H 10T1/2, 2 μM test compound, read-out: SMO CELL % INHIBITION @ 2 μM; for SMO CELL % INHIBITION @ 2 μM: 2 μM test compound
How it was run: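 Luminescence (Dual-Glo) measured after 20 h co-exposure at 37 °C to 250 ng/ml human SHh and compound at 2 uM down to 2 nM final. Cells were C3H10T1/2 carrying a transfected murine 10× Gli response-element luciferase construct with pEGFP, starved 20 h in 0.5% calf serum beforehand.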

T1 sequence (P56726 33-793): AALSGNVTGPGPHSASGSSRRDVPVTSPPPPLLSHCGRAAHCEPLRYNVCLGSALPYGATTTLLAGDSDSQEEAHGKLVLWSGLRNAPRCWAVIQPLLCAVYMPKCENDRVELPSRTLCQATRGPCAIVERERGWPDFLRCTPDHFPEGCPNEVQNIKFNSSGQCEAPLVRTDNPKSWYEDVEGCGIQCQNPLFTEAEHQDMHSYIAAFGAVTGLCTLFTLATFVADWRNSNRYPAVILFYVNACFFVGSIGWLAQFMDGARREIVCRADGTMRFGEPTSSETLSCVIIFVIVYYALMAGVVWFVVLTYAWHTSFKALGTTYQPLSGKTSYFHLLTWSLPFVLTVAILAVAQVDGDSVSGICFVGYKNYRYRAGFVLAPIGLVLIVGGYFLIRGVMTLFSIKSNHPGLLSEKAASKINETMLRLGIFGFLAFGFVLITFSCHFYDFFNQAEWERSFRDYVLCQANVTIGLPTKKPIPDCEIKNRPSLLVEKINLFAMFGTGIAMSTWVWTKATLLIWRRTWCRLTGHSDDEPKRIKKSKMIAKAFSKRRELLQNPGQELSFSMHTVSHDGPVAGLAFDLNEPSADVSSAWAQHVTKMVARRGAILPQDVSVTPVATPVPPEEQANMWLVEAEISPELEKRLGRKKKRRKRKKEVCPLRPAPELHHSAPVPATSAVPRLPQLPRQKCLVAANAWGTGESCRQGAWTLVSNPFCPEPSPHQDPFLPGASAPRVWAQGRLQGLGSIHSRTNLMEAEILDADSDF

Structure (SMILES)	inhibition at 2 µM [%]	SMO CELL % INHIBITION @ 2 μM [%]
O=C(NC1CCCC(c2nc3ccccc3[nH]2)C1)c1c[nH]c(=O)[nH]c1=O (stereo not drawn) [Example 108, N-[3-(1H-benzimidazol-2-yl)cyclohexyl]-2,4-dioxo-1,2,3,4-tetrahydropyr-imidine-5-carboxamide triflouroacetate]	116	–
COc1ncccc1C(=O)NC1CCCC(c2nc3ccccc3[nH]2)C1 (stereo not drawn) [Example 109, N-[3-(1H-benzimidazol-2-yl)cyclohexyl]-2-methoxynico-tinamide triflouroacetate]	97	–
CCCN1CCNC(=O)C1CC(=O)NC1CCCC(c2nc3ccccc3[nH]2)C1 (stereo not drawn) [Example 110, N-[3-(1H-benzimidazol-2-yl)cyclohexyl]-2-(3-oxo-1-propylpiperazin-2-yl)acetamide triflouroacetate]	86	–
Cc1cccc(=O)n1CC(=O)NC1CCCC(c2nc3ccccc3[nH]2)C1 (stereo not drawn) [Example 111, N-[3-(1H-benzimidazol-2-yl)cyclohexyl]-2-(6-methyl-2-oxopyridin-1(2H)-yl)acetamide triflouroacetate]	103	–
O=C(CN1CCCCCC1=O)NC1CCCC(c2nc3ccccc3[nH]2)C1 (stereo not drawn) [Example 112, N-[3-(1H-benzimidazol-2-yl)cyclohexyl]-2-(2-oxoazepan-1-yl)acetamide triflouroacetate]	93	–
CN1C[C@H](O)CC1C(=O)NC1CCCC(c2nc3ccccc3[nH]2)C1 (stereo partly drawn) [Example 113, (4R)-N-[3-(1H-benzimidazol-2-yl)cyclohexyl]-4-hydroxy-1-methyl-L-prolinamide triflouroacetate]	93	–
O=C(NC1CCCC(c2nc3ccccc3[nH]2)C1)c1cc(C2CC2)n[nH]1 (stereo not drawn) [Example 114]	109	–
Cn1cc(CC(=O)NC2CCCC(c3nc4ccccc4[nH]3)C2)c2ccccc21 (stereo not drawn) [Example 115, N-[3-(1H-benzimidazol-2-yl)cyclohexyl]-2-(1-methyl-1H-indol-3-yl)acetamide triflouroacetate]	106	–
Cc1cn2cc(CCC(=O)NC3CCCC(c4nc5ccccc5[nH]4)C3)nc2s1 (stereo not drawn) [Example 116, N-[3-(1H-benzimidazol-2-yl)cyclohexyl]-3-(2-methylimidazo[2,1-b][1,3]thiazol-6-yl)propanamide triflouroacetate]	91	–
O=C(CNC(=O)c1ccccc1)NC1CCCC(c2nc3ccccc3[nH]2)C1 (stereo not drawn) [Example 117, N-(2-{[3-(1H-benzimidazol-2-yl)cyclohexyl]amino}-2-oxoethyl)benz-amide triflouroacetate]	102	–
COc1ccc2cc(C(=O)NC3CCCC(c4nc5ccccc5[nH]4)C3)n(C)c2c1 (stereo not drawn) [Example 118, N-[3-(1H-benzimidazol-2-yl)cyclohexyl]-6-methoxy-1-methyl-1H-indole-2-carboxamide triflouroacetate]	83	–
COc1cc(C(=O)NC2CCCC(c3nc4ccccc4[nH]3)C2)nc(OC)n1 (stereo not drawn) [Example 119, N-[3-(1H-benzimidazol-2-yl)cyclohexyl]-2,6-dimethoxypyr-imidine-4-carboxamide triflouroacetate]	75	–
Cc1cc(C)n(CCC(=O)NC2CCCC(c3nc4ccccc4[nH]3)C2)n1 (stereo not drawn) [Example 120, N-[3-(1H-benzimidazol-2-yl)cyclohexyl]-3-(3,5-dimethyl-1H-pyrazol-1-yl)propanamide triflouroacetate]	70	–
O=C(NC1CCCC(c2nc3ccccc3[nH]2)C1)C1CCCO1 (stereo not drawn) [Example 121, N-[3-(1H-benzimidazol-2-yl)cyclohexyl] tetrahydrofuran-2-carboxamide triflouroacetate]	94	–
O=C(NC1CCCC(c2nc3ccccc3[nH]2)C1)c1cnn2c1CCCC2 (stereo not drawn) [Example 122, N-(3-(1H-benzo[d]imida-zol-2-yl)cyclohexyl)-4,5,6,7-tetrahydropyr-azolo[1,5-a]pyridine-3-carboxamide triflouroacetate]	92	–
CC(=O)N[C@H](Cc1ccccc1)C(=O)NC1CCCC(c2nc3ccccc3[nH]2)C1 (stereo partly drawn) [Example 123, Nalpha-acetyl-N-[3-(1H-benzimidazol-2-yl)cyclohexyl]-D-phenylalanin-amide triflouroacetate]	83	–
Cc1ccc(C(=O)NC2CCCC(c3nc4ccccc4[nH]3)C2)c(Cl)n1 (stereo not drawn) [Example 124, N-[3-(1H-benzimidazol-2-yl)cyclohexyl]-2-chloro-6-methylnico-tinamide triflouroacetate]	62	–
O=C(C[C@H]1C[C@H]2C=C[C@@H]1C2)NC1CCCC(c2nc3ccccc3[nH]2)C1 (stereo partly drawn) [Example 125, N-[3-(1H-benzimidazol-2-yl)cyclohexyl]-2-[(1S,2S,4S)-bicyclo[2.2.1]hept-5-en-2-yl]acetamide triflouroacetate]	103	–

Structure (SMILES)	inhibition at 2 µM [%]	SMO CELL % INHIBITION @ 2 μM [%]
C[S+]([O-])c1ccc(C(=O)NC2CCCC(c3nc4ccccc4[nH]3)C2)cc1 (stereo not drawn) [Example 126, N-[3-(1H-benzimidazol-2-yl)cyclophexyl]-4-(methylsulfinyl) benzamide triflouroacetate]	83	–
O=C(Cn1ccc2sccc2c1=O)NC1CCCC(c2nc3ccccc3[nH]2)C1 (stereo not drawn) [Example 127, N-[3-(1H-benzimidazol-2-yl)cyclohexyl]-2-(4-oxothieno[3,2-c]pyridin-5(4H)-yl)acetamide HCl]	100	–
O=C(Cn1ccc2sccc2c1=O)NC1CCCC(c2nc3ccccc3[nH]2)C1 (stereo not drawn) [Example 128, N-[3-(1H-benzimidazol-2-yl)cyclohexyl]-2-(4-oxothieno[3,2-c]pyridin-5(4H)-yl)acetamide triflouroacetate]	–	100
O=C(CCCC(=O)NC1CCCC(c2nc3ccccc3[nH]2)C1)Nc1ccccc1 (stereo not drawn) [Example 129, N-[3-(1H-benzimidazol-2-yl)cyclohexyl]-N′-phenylpentane diamide triflouroacetate]	95	–
Cn1cc(CN2CCCC2)cc1C(=O)NC1CCCC(c2nc3ccccc3[nH]2)C1 (stereo not drawn) [Example 130, N-[3-(1H-benzimidazol-2-yl)cyclohexyl]-1-methyl-4-(pyrrolidin-1-ylmethyl)-1H-pyrrole-2-carboxamide triflouroacetate]	84	–
O=C(Cc1ccc(Cl)s1)NC1CCCC(c2nc3ccccc3[nH]2)C1 (stereo not drawn) [Example 131, N-[3-(1H-benzimidazol-2-yl)cyclohexyl]-2-(5-chloro-2-thienyl)acetamide triflouroacetate]	101	–
COc1ccc(C2(C(=O)NC3CCCC(c4nc5ccccc5[nH]4)C3)CC2)cc1 (stereo not drawn) [Example 132, N-[3-(1H-benzimidazol-2-yl)cyclohexyl]-1-(4-methoxyphenyl) cyclopropane-carboxamide triflouroacetate]	78	–
COc1cccc2c1OCC(C(=O)NC1CCCC(c3nc4ccccc4[nH]3)C1)C2 (stereo not drawn) [Example 133, N-[3-(1H-benzimidazol-2-yl)cyclohexyl]-8-methoxychrom-ane-3-carboxamide triflouroacetate]	85	–
O=C(NC1CCCC(c2nc3ccccc3[nH]2)C1)c1ccc(CN2CCOCC2)o1 (stereo not drawn) [Example 134, N-[3-(1H-benzimidazol-2-yl)cyclohexyl]-5-(morpholin-4-ylmethyl)-2-furamide triflouroacetate]	101	–
O=C(NC1CCCC(c2nc3ccccc3[nH]2)C1)c1cc(-c2ccncc2)n[nH]1 (stereo not drawn) [Example 135, N-[3-(1H-benzimidazol-2-yl)cyclohexyl]-3-pyridin-4-yl-1H-pyrazole-5-carboxamide triflouroacetate]	100	–
Cc1n[nH]c(C)c1/C=C/C(=O)NC1CCCC(c2nc3ccccc3[nH]2)C1 (stereo not drawn) [Example 136, (2E)-N-[3-(1H-benzimidazol-2-yl)cyclohexyl]-3-(3,5-dimethyl-1H-pyrazol-4-yl)acrylamide triflouroacetate]	86	–
O=C1CCc2cc(C(=O)NC3CCCC(c4nc5ccccc5[nH]4)C3)ccc2N1 (stereo not drawn) [Example 137, N-[3-(1H-benzimidazol-2-yl)cyclohexyl]-2-oxo-1,2,3,4-tetrahydroquino-line-6-carboxamide triflouroacetate]	108	–
O=C(CN1C[C@@H]2CC[C@H]1C2)NC1CCCC(c2nc3ccccc3[nH]2)C1 (stereo partly drawn) [Example 138, 2-[(1S,4R)-2-azabicyclo[2.2.1]hept-2-yl]-N-[3-(1H-benzimidazol-2-yl)cyclohexyl]-acetamide triflouroacetate]	100	–
COc1cc(C(=O)NC2CCCC(c3nc4ccccc4[nH]3)C2)cc2c1OCCO2 (stereo not drawn) [Example 139, N-[3-(1H-benzimidazol-2-yl)cyclohexyl]-8-methoxy-2,3-dihydro-1,4-benzodioxine-6-carboxamide triflouroacetate]	105	–
O=C(NC1CCCC(c2nc3ccccc3[nH]2)C1)c1ccc2cc[nH]c2c1 (stereo not drawn) [Example 140, N-[3-(1H-benzimidazol-2-yl)cyclohexyl]-1H-indole-6-carboxamide HCl]	110	–
O=C(NC1CCCC(c2nc3ccccc3[nH]2)C1)c1ccc2cc[nH]c2c1 (stereo not drawn) [Example 141, N-[3-(1H-benzimidazol-2-yl)cyclohexyl]-1H-indole-6-carboxamide triflouroacetate]	–	110
CC(C(=O)NC1CCCC(c2nc3ccccc3[nH]2)C1)n1cccn1 (stereo not drawn) [Example 142, N-[3-(1H-benzimidazol-2-yl)cyclohexyl]-2-(1H-pyrazol-1-yl)propanamide triflouroacetate]	69	–
Cn1c(=O)[nH]c2cc(C(=O)NC3CCCC(c4nc5ccccc5[nH]4)C3)ccc21 (stereo not drawn) [Example 143, N-[3-(1H-benzimidazol-2-yl)cyclohexyl]-1-methyl-2-oxo-2,3-dihydro-1H-benzimidazole-5-carboxamide triflouroacetate]	87	–
